Laboratory results as given in US20080227766A1, “Synergistic, Silver-Containing Biocide Composition” (THOR GMBH, priority 2005, published 2008).

Tests used:
[1] = tested on: Pseudomonas aeruginosa (ATCC 9027); assay: MIC and synergy index (Kull) in Müller-Hinton broth; assay type: cell-based; settings: 72 h/25° C.
Description: (§1) The synergism of a combination of silver with 1,2-benzisothiazolin-3-one (BIT) was tested. Silver was used in the form of silver nitrate. […] The test organism used was the gram-negative bacterium Pseudomonas aeruginosa (ATCC 9027). For the test, aqueous mixtures with different concentrations of silver nitrate and BIT were prepared and were tested for their activity on Pseudomonas aeruginosa. The aqueous mixtures further included a Müller-Hinton broth (commercial product “Merck Nr. 10393”) as nutrient medium. The cell density of Pseudomonas aeruginosa was 10^6 microbes/ml.
(§2) The incubation time was 72 h at 25° C. Each sample was incubated at 120 rpm on an incubation shaker. After 72 h the samples were inspected for growth of Pseudomonas aeruginosa. Growth was shown through a clouding of the nutrient medium. In this way, the minimum inhibitory concentrations (MICs) of the two actives, individually and in combination, were ascertained. The MIC is the concentration at which there is no longer any clouding of the nutrient medium.
(§3) The synergism arising was represented numerically by calculation of the synergy index (SI). The calculation was made in accordance with the commonplace method of F. C. Kull et al., Applied Microbiology, vol. 9 (1961), p. 538. There the SI is calculated according to the following formula:
synergy index SI=Qa/QA+Qb/QB. […]

[2] = tested on: Staphylococcus aureus (ATCC 6538); assay: as above; assay type: cell-based
Description: as §1
as §2, with “The incubation time was 72 h at 25° C.” left out, “After 72 h the samples were inspected for growth of Pseudomonas aeruginosa.” left out
as §3
synergy index SI=Qa/QA+Qb/QB.
When this formula is applied to the biocide system BIT+Ag under test here, the parameters in the formula are defined as follows: • Qa=concentration of BIT in the biocide mixture of BIT+Ag • QA=concentration of BIT as a single biocide • Qb=concentration of Ag in the biocide mixture of BIT+Ag • QB=concentration of Ag as a single biocide
If the synergy index has a value of more than 1, this means that antagonism is present. If the synergy index adopts a value of 1, this means that the two biocides have an additive effect.
The experiment from example 2 was repeated in the same way but using the gram-positive test organism Staphylococcus aureus (ATCC 6538) instead of Pseudomonas aeruginosa.
Example 3 was repeated in the same way, but with N-methyl-1,2-benzisothiazolin-3-one (MBIT) as the biocidal component.
Example 3 was repeated, but using N-butyl-1,2-benzisothiazolin-3-one (BBIT) as the biocidal component.

SMILES: [Ag] [Ag, silver]
- MIC at Ag concentration Qb ([1]; Ag (from silver nitrate) in mixture BIT + Ag (or Ag alone)): 25.4 ppm
- MIC at Ag concentration Qb ([2]; 72 h/25° C., Ag in mixture BIT + Ag (or Ag alone)): 19.1 ppm
- MIC at Ag concentration Qb ([2]; 96 h/25° C., Ag in mixture BBIT + Ag (or Ag alone)): 25.4 ppm
- MIC at Ag concentration Qb ([2]; 96 h/25° C., Ag in mixture MBIT + Ag (or Ag alone)): 27 ppm

SMILES: CCCCn1sc2ccccc2c1=O [BBIT, N-butyl-1,2-benzisothiazolin-3-one]
- MIC at BBIT concentration Qa ([2]; 96 h/25° C., BBIT in mixture BBIT + Ag (or BBIT alone)): 20 ppm

SMILES: O=c1[nH]sc2ccccc12 [BIT, 1,2-benzisothiazolin-3-one]
- MIC at BIT concentration Qa ([1]; BIT in mixture BIT + Ag (or BIT alone)): 40 ppm
- MIC at BIT concentration Qa ([2]; 72 h/25° C., BIT in mixture BIT + Ag (or BIT alone)): 20 ppm

SMILES: Cn1sc2ccccc2c1=O [MBIT, N-methyl-1,2-benzisothiazolin-3-one]
- MIC at MBIT concentration Qa ([2]; 96 h/25° C., MBIT in mixture MBIT + Ag (or MBIT alone)): 20 ppm
